The nature of assay [1]: Selectivity index, ratio of IC50 for antiproliferative activity against mouse B16-F10 cells harboring wild type MTAP assessed as inhibition of cell viability to IC50 for antiproliferative activity against MTAP knockout mouse B16-F10 cells assessed as inhibition of cell viability. Type of assay: functional.
The target of assay [2] is S-adenosylmethionine synthase isoform type-2 (Homo sapiens, UniProt P31153). Kind of assay: Inhibition of MAT2A (unknown origin) using L-methionine and ATP as substrate preincubated with compound for 10 mins followed by substrate addition and measured after 60 mins by kinase-glo max reagent based microplate reader analysis. Background: Kinase-Glo reads ATP consumption through a luciferase reaction.
S-adenosylmethionine synthase isoform type-2, sequence (P31153 whole entry, canonical isoform): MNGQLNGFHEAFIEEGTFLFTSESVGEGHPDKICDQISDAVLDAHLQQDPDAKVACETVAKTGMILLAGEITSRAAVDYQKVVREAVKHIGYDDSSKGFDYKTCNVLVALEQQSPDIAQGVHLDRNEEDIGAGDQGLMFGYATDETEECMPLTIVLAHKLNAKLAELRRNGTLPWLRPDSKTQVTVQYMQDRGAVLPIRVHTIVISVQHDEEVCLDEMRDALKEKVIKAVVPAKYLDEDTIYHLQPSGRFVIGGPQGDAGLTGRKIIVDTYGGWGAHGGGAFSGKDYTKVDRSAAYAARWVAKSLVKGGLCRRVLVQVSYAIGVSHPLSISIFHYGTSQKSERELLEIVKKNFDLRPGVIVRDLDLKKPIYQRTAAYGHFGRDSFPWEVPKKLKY

Assay [3] deals with B16-F10. Kind of assay: Antiproliferative activity against mouse B16-F10 cells harboring wild type MTAP assessed as inhibition of cell viability measured for 96 hrs by SRB assay. To be noted: B16-F10, 96 h. Type of assay: functional, cell-based.
The test system of assay [4] is B16-F10. Kind of assay: Antiproliferative activity against MTAP knockout mouse B16-F10 cells assessed as inhibition of cell viability measured for 96 hrs by SRB assay. Type of assay: functional, cell-based. To be noted: B16-F10, 96 h. (In SRB staining, fixed cells bind dye roughly in proportion to their protein.)
For the next assay, the system named is SF-126. The assay is described as follows: Induction of DNA damage in human SF-126 cells harboring wild type MTAP assessed as increase in gammaH2AX level at 0.1 to 10 uM measured for 96 hrs by Western blot analysis. Type of assay: functional, cell-based. The following applies: dose 0.1-10 µM. Background: In western blotting, separated proteins are transferred to a membrane and probed.

The subject of a further assay is MIA PaCa-2. Kind of assay: Antitumor activity against MTAP null human MIA PaCa-2 cells xenografted in mouse assessed as tumor growth inhibition at 30 to 60 mg/kg, po measured after 28 days. The following applies: dose 30-60 mg/kg, time 28.0 day. Type of assay: functional, organism-based.

From ChEMBL document CHEMBL6096692, “Discovery of 2(1H)-Quinoxalinone Derivatives as Potent and Selective MAT2A Inhibitors for the Treatment of MTAP-Deficient Cancers” (J Med Chem, 2025) come the findings set out here.

Where “and” joins values, the source holds several entries; their conditions need not be identical. Equal entries are not always repeated. Calls of active or inactive are those of the source. No cut-off for these calls is given here. Bounds are passed on as bounds.

With `O=c1c(-c2ccc3nncn3c2)nc2ccc(C3CC3)cc2n1-c1ccc(OC(F)F)cc1`, the “Ratio IC50” value in assay [1] stood at 13.2. The results for the IC50 (in assay [2]; in the assay with B16-F10 [3]; in the assay with B16-F10 [4]) were 103 nM, 14900 nM and 1130 nM, respectively.
The corresponding values for `Cn1cnc2ccc(-c3nc4ccc(C5CC5)nc4n(-c4ccc(OC(F)F)cc4)c3=O)cc21` are 3.8, 23.1 nM, 800 nM and 210 nM.
`COc1ccc(-c2nc3cnc(NCC(F)(F)F)nc3n(-c3ccc(C(F)(F)F)cc3)c2=O)cc1`: in assay [2], the IC50 (as a rule, the concentration at which inhibition is half-maximal) was above 1000 nM.
For `COc1ccc(-n2cc3cnc(NCC(F)(F)F)nc3c(-c3ccc(Br)cc3)c2=O)cc1`, the outcome in the assay with SF-126 was inactive. Also, the “Ratio IC50” value in assay [1] is on record as 6.5. The result in the assay on MIA PaCa-2 was Active. Besides, the IC50 was found to be 56.1 nM in assay [2], 2150 nM with B16-F10 [3] and 330 nM in the assay with B16-F10 [4].
Turning to `O=c1c(-c2ccc3ncn(C4CC4)c3c2)nc2cnc(NCC(F)(F)F)nc2n1-c1ccc(OC(F)F)cc1`, the “Ratio IC50” value in assay [1] was found to be 41.4. Further, the IC50 worked out at 83 nM in assay [2], 16600 nM in the assay on B16-F10 [3] and 400 nM in the assay on B16-F10 [4].
For `O=c1c(-c2ccc3c(c2)CCCO3)nc2cnc(NCC(F)(F)F)nc2n1-c1ccc(OC(F)F)cc1`, the “Ratio IC50” value in assay [1] is reported as above 12. The values for the IC50 (in assay [2]; with B16-F10 [3]; with B16-F10 [4]) were 37.7 nM, above 20000 nM and 1670 nM, respectively.
In the same order, the values of `COc1ccc(-c2nc3cnc(NCC(F)(F)F)nc3n(-c3ccc(OC(F)F)cc3)c2=O)cc1` are above 6.1, 100 nM, above 20000 nM and 3300 nM.
`O=c1c(-c2ccn3nccc3c2)nc2ccc(C3CC3)cc2n1-c1ccc(OC(F)F)cc1`: the “Ratio IC50” value in assay [1] came to 10.4. The results for the IC50 (in assay [2]; in the assay on B16-F10 [3]; with B16-F10 [4]) were 81.4 nM, 13900 nM and 1340 nM, respectively.
With `CC(C)n1cnc2ccc(-c3nc4ccc(C5CC5)cc4n(-c4ccc(OC(F)F)cc4)c3=O)cc21`, the “Ratio IC50” value in assay [1] amounted to 9. Further, the values for the IC50 (in assay [2]; in the assay on B16-F10 [3]; in the assay on B16-F10 [4]) were 138 nM, 3330 nM and 370 nM, respectively.
The corresponding values for `COc1ccc(-c2nc3cnc(NCC(F)(F)F)nc3n(-c3ccc(Br)cc3)c2=O)cc1` are above 3.1, 151 nM, above 20000 nM and 6540 nM.
In the same order, the values of `Cn1nnc2ccc(-c3nc4ccc(C5CC5)cc4n(-c4ccc(OC(F)F)cc4)c3=O)cc21` are 3.8, 28.9 nM, 9070 nM and 1520 nM.
In the same order, the values of `O=c1c(-c2ccc3c(c2)CCO3)nc2cnc(NCC(F)(F)F)nc2n1-c1ccc(OC(F)F)cc1` are above 8.1, 89 nM, above 20000 nM and 2480 nM.
On to `O=c1c(-c2ccc3ncn(C4CCCC4)c3c2)nc2cnc(NCC(F)(F)F)nc2n1-c1ccc(OC(F)F)cc1`, for which the “Ratio IC50” value in assay [1] turned out to be 32.5. Besides, the IC50 in assay [2] is 108 nM and 23.1 nM; in the assay on B16-F10 [3], 9740 nM; with B16-F10 [4], 300 nM.
As for `CCOc1ccc2nc(-c3ccc4ncn(C)c4c3)c(=O)n(-c3ccc(OC(F)F)cc3)c2c1`, the “Ratio IC50” value in assay [1] was above 6.5. In addition, the IC50 was 104 nM in assay [2], above 20000 nM with B16-F10 [3] and 3080 nM with B16-F10 [4].
As for `O=c1c(-c2ccc3ncoc3c2)nc2ccc(C3CC3)cc2n1-c1ccc(OC(F)F)cc1`, the IC50 in assay [2] amounted to 98.5 nM.
With `Cn1cc2cc(-c3nc4cnc(NCC(F)(F)F)nc4n(-c4ccc(OC(F)F)cc4)c3=O)ccc2n1`, in assay [1], the “Ratio IC50” value is above 16. Also, the IC50 in assay [2] was 38.8 nM; in the assay on B16-F10 [3], above 20000 nM; with B16-F10 [4], 1250 nM.
In the case of `COc1ccc(-c2nc3cnc(NCC(F)(F)F)nc3n(-c3ccc(OCC(F)F)cc3)c2=O)cc1`, in assay [2], the IC50 was above 1000 nM.
For the compound `COc1ccc2nc(-c3ccc4ncn(C)c4c3)c(=O)n(-c3ccc(OC(F)F)cc3)c2c1`, the “Ratio IC50” value in assay [1] is reported as above 8.1. The IC50 in assay [2] is 89 nM; in the assay on B16-F10 [3] it was above 20000 nM; with B16-F10 [4], 2480 nM.
On to `O=c1c(-c2ccc3nccn3c2)nc2ccc(C3CC3)cc2n1-c1ccc(OC(F)F)cc1`, for which, in assay [1], the “Ratio IC50” value is given as above 25.6. The IC50 in assay [2] is 63.9 nM; in the assay on B16-F10 [3], above 20000 nM; in the assay on B16-F10 [4], 780 nM.
Take `COc1ccc(-c2nc3cnc(NCC(F)(F)F)nc3n(-c3cccc(OC(F)F)c3)c2=O)cc1`: the IC50 in assay [2] is above 1000 nM.
With `Cn1cnc2ccc(-c3nc4cnc(NCC5CC5)nc4n(-c4ccc(OC(F)F)cc4)c3=O)cc21`, in assay [1], the “Ratio IC50” value is reported as 2.4. Moreover, the results for the IC50 (in assay [2]; with B16-F10 [3]; in the assay on B16-F10 [4]) were 613 nM, 7240 nM and 2960 nM, respectively.
The corresponding values for `Cn1cnc2ccc(-c3nc4cnc(NCC(F)(F)F)nc4n(-c4ccc(OC(F)F)cc4)c3=O)cc21` are above 64.5, 63.4 nM, above 20000 nM and 310 nM.
In the case of `O=c1c(-c2ccc3ncnn3c2)nc2ccc(C3CC3)cc2n1-c1ccc(OC(F)F)cc1`, the “Ratio IC50” value in assay [1] is given as above 1.4. For the same compound, the values for the 50% inhibitory concentration (IC50) (in assay [2]; in the assay on B16-F10 [3]; in the assay with B16-F10 [4]) were 115 nM, above 20000 nM and 14300 nM, respectively.
In the same order, the values of `Cc1nc2ccc(-c3nc4cnc(NCC(F)(F)F)nc4n(-c4ccc(OC(F)F)cc4)c3=O)cc2n1C` are 34.2, 64.4 nM, 18100 nM and 530 nM.
Consider `COc1ccc(-c2nc3cnc(NCC(F)(F)F)nc3n(-c3ccc(OC(F)F)nc3)c2=O)cc1`, for which the IC50 in assay [2] was above 1000 nM.
Still for that read-out and setting: the result for `Cn1cnc2ccc(-c3nc4cnc(NC5CC5)nc4n(-c4ccc(OC(F)F)cc4)c3=O)cc21` reads 49 nM.
Take `Cn1cc2cc(-c3nc4ccc(C5CC5)cc4n(-c4ccc(OC(F)F)cc4)c3=O)ccc2n1`: the “Ratio IC50” value in assay [1] is above 4.6. Also, the values for the IC50 (in assay [2]; in the assay with B16-F10 [3]; with B16-F10 [4]) were 79.2 nM, above 20000 nM and 4360 nM, respectively.
For `CC1=Nc2ccc(-c3nc4ccc(C5CC5)cc4n(-c4ccc(OC(F)F)cc4)c3=O)cc2C1(C)C`, in assay [1], the “Ratio IC50” value came out at 6.9. Besides, the IC50 in assay [2] is 89.2 nM; in the assay with B16-F10 [3] it was 5260 nM; in the assay on B16-F10 [4], 760 nM.
Regarding `Cn1cnc2ccc(-c3nc4ccc(C5CCC5)cc4n(-c4ccc(OC(F)F)cc4)c3=O)cc21`, the IC50 in assay [2] amounted to 228 nM.
Same read-out and setting: the result for `O=c1c(-c2ccc3ncccc3c2)nc2cnc(NCC(F)(F)F)nc2n1-c1ccc(OC(F)F)cc1` reads 435 nM.
With `Cn1cnc2ccc(-c3nc4cnc(C5CC5)cc4n(-c4ccc(OC(F)F)cc4)c3=O)cc21`, the IC50 in assay [2] was 613 nM.
For `COc1ccc(-c2nc3cnc(NCC(F)(F)F)nc3n(-c3ccc(Cl)cc3)c2=O)cc1`, the “Ratio IC50” value in assay [1] is listed as above 2.2. In addition, the IC50 is 138 nM in assay [2], above 20000 nM in the assay on B16-F10 [3] and 9270 nM in the assay with B16-F10 [4].
